Data published in patent publication US7713937B2, “Synthetic peptide amides and dimeric forms thereof” (Cara Therapeutics, Inc., priority 2006, dated 2010).
Square brackets hold non-standard residues; d marks the D form. Side chains are listed from the residue outwards. Peptide text beside a SMILES is read from it. dOrn = NCCC[C@@H](N)C(=O)O

Experiments:
[1] = biological target: T1, mouse kappa opioid receptor (mKOR) (Mus musculus, UniProt P33534); assay: cell-based; conditions: for Emax: read-out: mKOR Efficacy(%)
T1 construct: Stimulation of Endogenous Mouse Kappa-Opioid Receptor in R1.G1 Cells; host or cells: R1.G1 mouse thymoma cells

[2] = biological target: T2, human kappa opioid receptor (hKOR) (Homo sapiens, UniProt P41145); assay: cell-based; conditions: for Emax: HEK293, read-out: hKOR Efficacy(%)
T2 construct: expressed in transfected cells; host or cells: HEK-293 cells, transient transfection with Fugene6
T2 sequence (P41145 whole entry): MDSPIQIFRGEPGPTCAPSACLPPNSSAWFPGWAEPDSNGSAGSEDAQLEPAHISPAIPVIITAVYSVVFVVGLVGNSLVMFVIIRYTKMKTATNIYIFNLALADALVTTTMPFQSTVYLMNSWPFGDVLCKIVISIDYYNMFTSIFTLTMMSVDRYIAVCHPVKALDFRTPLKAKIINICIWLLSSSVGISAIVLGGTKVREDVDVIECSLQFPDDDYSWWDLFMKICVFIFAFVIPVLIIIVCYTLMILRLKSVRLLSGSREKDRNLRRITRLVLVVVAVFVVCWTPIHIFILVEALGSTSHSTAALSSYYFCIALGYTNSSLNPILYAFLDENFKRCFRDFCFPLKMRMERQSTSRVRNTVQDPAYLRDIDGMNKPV

T1 sequence (P33534 whole entry): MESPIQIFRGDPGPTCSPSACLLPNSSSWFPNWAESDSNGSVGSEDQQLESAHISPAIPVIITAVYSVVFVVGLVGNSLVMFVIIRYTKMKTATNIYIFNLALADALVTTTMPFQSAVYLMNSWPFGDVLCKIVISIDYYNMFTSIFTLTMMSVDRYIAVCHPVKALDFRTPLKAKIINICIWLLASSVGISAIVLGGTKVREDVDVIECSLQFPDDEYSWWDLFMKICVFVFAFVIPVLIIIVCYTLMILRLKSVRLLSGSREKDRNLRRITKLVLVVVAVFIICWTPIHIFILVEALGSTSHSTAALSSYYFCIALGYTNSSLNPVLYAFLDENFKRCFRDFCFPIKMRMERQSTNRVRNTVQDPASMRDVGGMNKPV

Structure (SMILES) | EC50 [1] [nM] | Emax [1] [%] | EC50 [2] [nM] | Emax [2] [%]
CC(C)C[C@@H](NC(=O)[C@@H](Cc1ccccc1)NC(=O)[C@H](N)Cc1ccccc1)C(=O)N[C@H](CCCN)C(=O)N1CCC(N2CCC[C@H]2C(N)=O)CC1 [Compound (50), D-Phe-D-Phe-D-Leu-D-Orn-[N-(4-piperidinyl)-L-proline]-NH2] | 0.022 | 96 | 0.19 | –
CCN1CCCN(C(=O)[C@@H](CCCN)NC(=O)[C@@H](CC(C)C)NC(=O)[C@@H](Cc2ccccc2)NC(=O)[C@H](N)Cc2ccccc2)CC1 [Compound (55), D-Phe-D-Phe-D-Leu-D-Orn-[4-ethylhomopiperazine amide]] | 0.049 | 99 | 0.14 | 93
CC(C)C[C@@H](NC(=O)[C@@H](Cc1ccccc1)NC(=O)[C@H](N)Cc1ccccc1)C(=O)N[C@H](CCCN)C(=O)N1CCCNCC1 [Compound (56), D-Phe-D-Phe-D-Leu-D-Orn-[homopiperazine amide]] | 0.08 | 100 | 0.22 | –
CNCCC[C@@H](NC(=O)[C@@H](CC(C)C)NC(=O)[C@@H](Cc1ccccc1)NC(=O)[C@H](N)Cc1ccccc1)C(=O)N1CCCN(C(=N)N)CC1 [Compound (57), D-Phe-D-Phe-D-Leu-(δ-Me)D-Orn-[4-amidinohomopiperazine amide]] | 0.078 | 97 | 0.09 | 101
CC(C)C[C@@H](NC(=O)[C@@H](Cc1ccccc1)NC(=O)[C@H](N)Cc1ccccc1)C(=O)N[C@H](CCCNC(C)C)C(=O)N1CCC(N)(C(=O)O)CC1 [Compound (58), D-Phe-D-Phe-D-Leu-(δ-iPr)D-Orn-[ω(4-aminopiperidine-4-carboxylic acid)]-OH] | 0.193 | 92 | 0.12 | –
CC(C)C[C@@H](NC(=O)[C@@H](Cc1ccccc1)NC(=O)[C@H](N)Cc1ccccc1)C(=O)N[C@H](CCCNC(C)C)C(=O)N1CCCN(C(=N)N)CC1 [Compound (59), D-Phe-D-Phe-D-Leu-(δ-iPr)D-Orn-[4-amidinohomopiperazine amide]] | 0.081 | 97 | 0.08 | 100
CNCCC[C@@H](NC(=O)[C@@H](CC(C)C)NC(=O)[C@@H](Cc1ccccc1)NC(=O)[C@H](N)Cc1ccccc1)C(=O)N1CCCNCC1 [Compound (60), D-Phe-D-Phe-D-Leu-(δ-Me)D-Orn-[homopiperazine amide]] | 0.045 | 95 | 0.09 | 106
CC(C)C[C@@H](NC(=O)[C@@H](Cc1ccccc1)NC(=O)[C@H](N)Cc1ccccc1)C(=O)N[C@H](CCCNC(C)C)C(=O)N1CCCNCC1 [Compound (61), D-Phe-D-Phe-D-Leu-(δ-iPr)D-Orn-[homopiperazine amide]] | 0.033 | 96 | 0.07 | 98
CC(C)C[C@@H](NC(=O)[C@@H](Cc1ccccc1)NC(=O)[C@H](N)Cc1ccccc1)C(=O)N[C@H](CCCCN)C(=O)NCC1OCCO1 [Compound (62)] | 0.147 | 85 | 0.021 | 98
CC(C)C[C@@H](NC(=O)[C@@H](Cc1ccccc1)NC(=O)[C@H](N)Cc1ccccc1)C(=O)N[C@H](CCCCN)C(=O)N1CCN(c2ncccn2)CC1 [Compound (63), D-Phe-D-Phe-D-Leu-D-Lys-[2-(piperazin-1-yl)pyrimidine amide]] | 0.12 | 78 | 0.0073 | 98
CC(C)C[C@@H](NC(=O)[C@@H](Cc1ccccc1)NC(=O)[C@H](N)Cc1ccccc1)C(=O)N[C@H](CCCCN)C(=O)N1CCN(c2cnccn2)CC1 [Compound (64), D-Phe-D-Phe-D-Leu-D-Lys-[2-(piperazin-1-yl)pyrazine amide]] | – | 85 | 0.0293 | 100
CC(C)C[C@@H](NC(=O)[C@@H](Cc1ccccc1)NC(=O)[C@H](N)Cc1ccccc1)C(=O)N[C@H](CCCCN)C(=O)N1CCN(c2ccccn2)CC1 [Compound (65), D-Phe-D-Phe-D-Leu-D-Lys-[1-(pyridin-2-yl)piperazine amide]] | 0.0471 | 89 | 0.0059 | 100
CC(C)C[C@@H](NC(=O)[C@@H](Cc1ccccc1)NC(=O)[C@H](N)Cc1ccccc1)C(=O)N[C@H](CCCCN)C(=O)N1CCN(c2nccs2)CC1 [Compound (66), D-Phe-D-Phe-D-Leu-D-Lys-[2-(piperazin-1-yl)thiazole amide]] | 0.084 | 85 | 0.031 | 92
CC(C)C[C@@H](NC(=O)[C@@H](Cc1ccccc1)NC(=O)[C@H](N)Cc1ccccc1)C(=O)N[C@H](CCCCN)C(=O)N1CCN(S(=O)(=O)N(C)C)CC1 [Compound (67), D-Phe-D-Phe-D-Leu-D-Lys-[N,N-dimethylpiperazine-1-sulfonamide amide]] | 0.193 | 86 | 0.0194 | 101
CC(C)C[C@@H](NC(=O)[C@@H](Cc1ccccc1)NC(=O)[C@H](N)Cc1ccccc1)C(=O)N[C@H](CCCCN)C(=O)N1CCN(S(C)(=O)=O)CC1 [Compound (68), D-Phe-D-Phe-D-Leu-D-Lys-[1-(methylsulfonyl)piperazine amide]] | 0.246 | 82 | 0.0073 | 100
CC(C)C[C@@H](NC(=O)[C@@H](Cc1ccccc1)NC(=O)[C@H](N)Cc1ccccc1)C(=O)N[C@H](CCCCN)C(=O)N1CCN(S(=O)(=O)c2ccccc2)CC1 [Compound (69), D-Phe-D-Phe-D-Leu-D-Lys-[1-(phenylsulfonyl)piperazine amide]] | 0.53 | 87 | 0.011 | 101
CC(C)C[C@@H](NC(=O)[C@@H](Cc1ccccc1)NC(=O)[C@H](N)Cc1ccccc1)C(=O)N[C@H](CCCCN)C(=O)N1CCN(C(=O)c2ccccc2)CC1 [Compound (70), D-Phe-D-Phe-D-Leu-D-Lys-[phenyl(piperazin-1-yl)methanone amide]] | 0.348 | 92 | 0.012 | 94
CC(C)C[C@@H](NC(=O)[C@@H](Cc1ccccc1)NC(=O)[C@H](N)Cc1ccccc1)C(=O)N[C@H](CCCCN)C(=O)N1CCS(=O)(=O)CC1 [Compound (71), D-Phe-D-Phe-D-Leu-D-Lys-[thiolmorpholine-1,1-dioxide amide]] | 0.192 | 89 | 0.0306 | 103
CC(C)C[C@@H](NC(=O)[C@@H](Cc1ccccc1)NC(=O)[C@H](N)Cc1ccccc1)C(=O)N[C@H](CCCCN)C(=O)NCc1ccc(C(F)(F)F)nc1 [Compound (72), D-Phe-D-Phe-D-Leu-D-Lys-[6-trifluoromethyl-3-aminomethylpyridine amide]] | 0.485 | 85 | 0.0667 | 95
CC(C)C[C@@H](NC(=O)[C@@H](Cc1ccccc1)NC(=O)[C@H](N)Cc1ccccc1)C(=O)N[C@H](CCCCN)C(=O)NCC1CCOCC1 [Compound (73)] | 0.633 | 89 | 0.0034 | 99
CC(C)C[C@@H](NC(=O)[C@@H](Cc1ccccc1)NC(=O)[C@H](N)Cc1ccccc1)C(=O)N[C@H](CCCCN)C(=O)NCc1ccc2[nH]c(=O)[nH]c2c1 [Compound (74), D-Phe-D-Phe-D-Leu-D-Lys-[5-(aminomethyl)-1H-benzo[d]imidazol-2(3H)-one amide]] | 0.072 | 87 | 0.0063 | 99
CC(C)C[C@@H](N)C(=O)N[C@H](CCCN)C(=O)N[C@@H](CCCCNC(=O)[C@@H](CCCN)NC(=O)[C@@H](CC(C)C)NC(=O)[C@@H](Cc1ccccc1)NC(=O)[C@H](N)Cc1ccccc1)C(=O)O [Compound (76), D-Phe-D-Phe-D-Leu-D-Orn-[eLys(D-Orn-D-Leu-H)]-OH] | 1.07 | 96 | 0.26 | 83
CC(C)C[C@@H](NC(=O)[C@H](N)Cc1ccccc1)C(=O)N[C@H](CCCN)C(=O)N[C@@H](CCCCNC(=O)[C@@H](CCCN)NC(=O)[C@@H](CC(C)C)NC(=O)[C@@H](Cc1ccccc1)NC(=O)[C@H](N)Cc1ccccc1)C(=O)O [Compound (78)] | 0.24 | – | – | 95
CC(C)C[C@@H](NC(=O)[C@@H](Cc1ccccc1)NC(=O)[C@H](N)Cc1ccccc1)C(=O)N[C@H](CCCN)C(=O)NCCCC[C@H](NC(=O)[C@H](N)CCCN)C(=O)O [Compound (79)] | 0.08 | 101 | 0.13 | –
CC(C)C[C@@H](NC(=O)[C@@H](Cc1ccccc1)NC(=O)[C@H](N)Cc1ccccc1)C(=O)N[C@H](CCCN)C(=O)NCCCC[C@H](NC(=O)[C@@H](CCCN)NC(=O)[C@@H](CC(C)C)NC(=O)[C@@H](Cc1ccccc1)NC(=O)[C@H](N)Cc1ccccc1)C(N)=O [Compound (80)] (H-[dF][dF][dL][dOrn]K([dOrn-dL-dF-dF])-NH2) | 1.3 | 91 | 0.25 | –
CC(C)C[C@@H](NC(=O)[C@@H](Cc1ccccc1)NC(=O)[C@H](N)Cc1ccccc1)C(=O)N[C@H](CCCN)C(=O)NCCCC[C@H](NC(=O)[C@H](N)CCCN)C(=O)N1CCNCC1 [Compound (81)] | 0.05 | 96 | 0.28 | 96
CC(C)C[C@@H](NC(=O)[C@@H](Cc1ccccc1)NC(=O)[C@H](N)Cc1ccccc1)C(=O)N[C@H](CCCN)C(=O)N1CCOC(C(=O)O)C1 (stereo partly drawn) [Compound (90), D-Phe-D-Phe-D-Leu-D-Orn-[R/S-2-carboxymorpholine]-OH] | 0.178 | 100 | 0.16 | 100
